# Experimental data as given in a melting point compilation (Tetko et al.; mined from patent text by program, amines drawn as free bases though some values may be those of a salt).
row,Structure (SMILES),melting point [°C]
1,COc1ccc(S(=O)(=O)N2CCC(N3N=C(c4ccc(OC)c(OC)c4)CCC3=O)CC2)cc1,197 to 198
2,O=C(Nc1ccc2[nH]c(=O)[nH]c2c1)C(=O)N1CCC(Cc2ccccc2)CC1,> 260
3,CC(C)Cc1nn(-c2ccccc2)c(CC(C)C)c1CC(=O)O,125 to 126
4,CCCCOc1ccc(NC(=O)c2cnc(C(=O)OC)c(OC)c2)cc1,138 to 141
5,O=C(O)CN(CCN(CC(=O)O)CC(=O)O)CCN(CC(=O)O)CC(=O)Nc1ccccc1,125
6,CCOC(=O)C(C)(C)Oc1ccc(CNc2ccccc2)cc1,45 to 46
7,Cc1noc(NS(=O)(=O)c2ccccc2-c2ccc(-c3ncco3)cc2CC(=O)N(C)C)c1C,89 to 96
8,COc1ccc(CSc2cccc(Cl)c2CN(C)C)cc1,101 to 104
9,Cn1ncc(C2=CC(=O)CCC2)c1S(N)(=O)=O,160 to 165
10,O=C(c1ccccc1)c1c[nH]nc1-c1cccc(Cl)c1,161 to 164
11,OCCc1cc(Br)ccc1O,63 to 65
12,COc1ccc(C=CC(=O)O)cc1-c1cc2c(cc1OCCCCCCO)C(C)(C)CCC2(C)C,118 to 120
13,Cc1ccc(S(=O)(=O)N(C)c2ccc(Cl)cc2S(C)=O)cc1 (centres undefined),142 to 144
14,COc1cc2cc(C(=O)O)[nH]c2cc1OCCCl,187 to 189
15,Cc1nnc(CNC(=O)CNC(=O)CN)n1-c1ccc(Cl)cc1C(=O)c1ccccc1Cl,60 to 65
16,CC(C)(C)OC(=O)NC1CCN(CCO)CC1,66
17,COc1cc(N)ccc1CN1C(=O)C(C)(c2ccccc2Cl)c2cc(Cl)ccc21 (centres undefined),232
18,Cc1cc(-c2cc(F)c(F)cc2-c2ccc(S(N)(=O)=O)cc2)ccc1Cl,142 to 143
19,COc1ccc2c(c1)C(=O)c1c-2c(O)nc2ccccc12,294 to 296
20,COc1ccc2[nH]cc(/C=C/c3cc(/C=C/c4ccc(OCc5ccccn5)cc4OC)[nH]n3)c2c1,189 to 195
21,Cc1oc2c(NC(=O)c3c(Cl)ccc(O)c3Cl)cccc2c1C,192 to 194
22,COCNC(=S)n1nc(Oc2c(Cl)cc(C(F)(F)F)cc2Cl)cc1C,95 to 96
23,CCSc1cc(C)nc(SCC)c1NC(=O)CCCCCCCSc1nc2ccccc2s1,94 to 96

row,Structure (SMILES),melting point [°C]
1,Cc1ccc(-c2ccccc2NC(=O)NN)cc1,148 to 151
2,Cc1ccc(S(=O)(=O)NC(C)(C)C)o1,113 to 114
3,CCOC(=O)C(C(=O)OCC)N1CC(N2C(=O)c3ccccc3C2=O)C1=O (centres undefined),149 to 150
4,CCOC(=O)C(=O)Nc1ccccc1Cn1cc(C(=O)OC)c2ccccc21,174 to 177
5,Nc1nc2ccccc2c2c1ncn2CCOCCCc1ccccn1,138 to 140
6,COc1ccc2c(C(=S)N(C)CC(=O)N(C)C)cccc2c1C(F)(F)F,172 to 175
7,CCCOc1cc(Br)ccc1-c1nc2cc3ncn(Cc4ccc(F)cc4)c3cc2c(=O)[nH]1,295 to 297
8,Cc1ccn2c(C)c(-c3ccc4sc(=O)n(Cc5cccnc5)c4c3)nc2c1,201 to 202
9,CCCCCCC(C)(C)c1cc(OC)c(C2C(O)[C@]3(C)CC[C@H]2C3(C)C)c(OC)c1 (some centres undefined),96 to 98
10,CCCCc1ncc(CC(Cc2ccccc2)C(=O)O)n1Cc1ccc(C(=O)O)cc1 (centres undefined),120 to 124
11,NC(C(=O)O)c1ccc(C(=O)O)cc1SCCc1ccccc1 (centres undefined),227 to 231
12,COc1c(C)c(C)c(OC)c(C(O)(c2ccc(N3CCOCC3)cc2)C(C)C)c1C (centres undefined),191 to 193
13,O=C1CC(=O)CC(c2ccccc2Cl)C1,157 to 158
14,O=C(Nc1cccc(C(F)(F)F)c1)c1ccccc1[N+](=O)[O-],134 to 135
15,COC(=O)CCCc1c(-c2ccc(F)cc2)[nH]c2ccc(-c3ccc([N+](=O)[O-])cc3)cc12,190 to 191
16,CC(C)c1cccc(C(C)C)c1NC(=O)C(Cc1ccc(OCc2ccccc2)cc1)NCc1ccccc1 (centres undefined),127 to 129
17,Cc1nc2cc(C#N)ccc2s1,158 to 160
18,COc1ccc2cc(C(=O)CCCCCCC(=O)O)ccc2c1,148 to 149
19,C[C@H]1CN(c2ccc(C(F)(F)F)c(Cl)n2)CCN1C(=O)OC(C)(C)C,86
20,COC(=O)c1cn(-c2ccc(F)cc2)c(-c2ccc(N(C)C)c(C)c2)cc1=O,217 to 220
21,CN(Cc1ccc(NC(=O)C2=Cc3cc(-c4ccc(N5CCOCC5)cc4)ccc3SCC2)cc1)C1CCOCC1,255 to 259
22,NC(=O)C1COCCN1C1CC1 (centres undefined),116
23,COc1ccc(OC)c2c1CCC(NC(C)=O)C2 (centres undefined),156 to 158

row,Structure (SMILES),melting point [°C]
1,CC(=O)Nc1nc2ccc(S(=O)(=O)n3c(CCC(=O)O)cc4cc(Cl)ccc43)cc2s1,> 250
2,O=C(NCC(=O)N1[C@@H](c2ccccc2O)CC[C@H]1c1ccccc1)Nc1cccc(C(=O)O)c1 (racemic),160
3,COc1ccnc(CCc2nc3cc(-c4ccc(OCc5ccccc5)cc4)cnc3[nH]2)c1,161 to 162
4,CCOC(=O)c1ccc2c(c1)OC(c1cc(Cl)cc(Cl)c1)(c1cc(Cl)cc(Cl)c1)O2,89
5,O=P(O)(O)C(c1cccc(C(F)(F)F)c1)c1cccc(C(F)(F)F)c1,191 to 193
6,O=C(O)c1cc(OCC(=O)c2ccccc2)cc(C(F)(F)F)c1,180 to 182
7,COc1cc2c(cc1OCCCBr)oc1cc(-c3ccccc3Cl)c3c(c12)C(=O)N(CCCBr)C3=O,180 to 182
8,COc1ccc(S(=O)(=O)[C@H](CCCCc2ccccc2)[C@H](C(=O)O)C(C)C)cc1OC (relative stereo),173 to 174
9,CN(c1cccc2cc(-c3ncc(CO)s3)[nH]c12)S(=O)(=O)c1cccs1,201 to 202
10,CCCCCN1C(=O)C2(COc3cc4c(cc32)OCO4)c2cccnc21 (centres undefined),126 to 127
11,CCc1c(C2=NC(C)(C)CO2)ccc(C2=NC(C)(C)CO2)c1CC,49 to 50
12,CCCCCSc1cccc(-c2nc(=O)c3ccccc3s2)n1,105
13,CCC1CCC(c2ccc(-c3cc(F)c(C(F)(F)Oc4cc(F)c(C(F)(F)F)c(F)c4)c(F)c3)c(F)c2)OC1 (centres undefined),90
14,CC(C)(C(C#N)=NO)S(C)(=O)=O,139 to 141
15,NC(=O)c1ccnc(CCCCCCOCCCCCCBr)c1,73 to 75
16,CCCCn1nc(C(F)(F)CC)nc1Cc1ccc(-c2ccccc2-c2nnn[nH]2)nc1,98 to 100
17,CCCCCCCNC(=O)Nc1cccc(N(C)C)c1C(=O)NC1CCN(C(c2ccccc2)c2ccccc2)CC1,77
18,CC(C)N=CCCC1(C(N)=O)c2ccccc2-c2ccccc21,149 to 155
19,CCOC(=O)Cc1cc(Cl)cc(C(=O)c2ccc(Br)cc2)c1N,92 to 94
20,O=c1cc(-c2ccccc2)sn1-c1nc2ccccc2s1,201 to 202
21,O=c1c2cc(F)ccc2nc(CNCc2ccccc2F)n1-c1ccccc1Cl,140
22,O=C(O)CCCc1ccc(-c2ccc(F)cc2)cc1,118 to 120
23,CCN1C(=O)C(C)(C)c2ccc(C(=O)Nc3ccncc3)cc21,209 to 211
